Assay results: patent publication US4709032A, “Isoquinolinesulfonamide derivatives” (Asahi Kasei Kogyo Kabushiki Kaisha, priority 1982, dated 1987)

Experiments:
vertebral artery = assay: Effect on blood flow volume in vertebral artery of anesthetized dogs; format: in vivo, dog of mixed breed; conditions: intravenous, 1 mg/Kg (mm/Kg [sic])
Description: (§1) The effect of the isoquinolinesulfonamide derivatives and the pharmaceutically acceptable acid addition salts of this invention on the vasodilatation of the femoral and vertebral arteries can be measured by anesthetizing a dog of mixed breed weighing 8 to 15 Kg by an intravenous administration of 35 mg/Kg of pentbarbital, providing an acute type probe (a product of Nippon Koden K.K., Japan) with the femoral and vertebral arteries, administering the isoquinolinesulfonamide derivatives and the pharmaceutically acceptable acid addition salts to the femoral vein through a polyethylene tube inserted into the femoral vein side chain and measuring the blood flow volume with an electromagnetic flowmeter (a product of Nippon Koden K.K., Japan, "MFV-1200"). 1 mg/Kg of N-(2-guanidinoethyl)-5-isoquinolinesulfonamide, i.e., Compound (2) was intravenously administered, the increased blood flow volumes in the vertebral artery and in the femoral artery were 95% and 37%. And the duration time is more than 30 minutes.
(§2) The effect on the vasodilatation of the femoral and vertebral arteries was measured by anesthetizing a dog of mixed breed weighing 8 to 15 Kg by an intravenous administration of 35 mg/Kg of pentbarbital, providing an acute type probe (a product of Nippon Koden K.K., Japan) with the femoral and vertebral arteries, administering to the femoral vein through a polyethylene tube inserted into the femoral vein side chain, measuring the blood flow volume with an electromagnetic blood flowmeter (a product of Nippon Koden K.K., Japan, "MFV-1200") and measuring the change of blood pressure.

femoral artery = assay: Effect on blood flow volume in femoral artery of anesthetized dogs; format: in vivo, dog of mixed breed; conditions: intravenous, 1 mg/Kg (mm/Kg [sic])
Description: as §1, §2

mesenteric artery = assay: Relaxation of rabbit mesenteric artery contracted with KCl (isolated helical strip); format: cell-based; conditions: Oryctolagus cuniculus; concentration for 50% relaxation (complete relaxation = 100%); KCl 15-20 mM contraction; read-out: Relaxation of Mesenteric Artery ED50
Description: When, for example, N-(2-guanidinoethyl)-5-isoquinolinesulfonamide, i.e., compound (2) was added and a complete relaxation was designated 100%, the concentration which could bring about a relaxation of 50%, i.e., ED50 was 1 μM.
After a home bred rabbit of a Japanese species weighing about 3 Kg was subjected to bloodletting, resulting in death and then to abdominal incision, the mesenteric artery was taken out, cut into helicoids of 2 mm×25 mm and suspended in a 20 ml organ bath filled with a Krebs-Henseleit solution into which a mixed gas of 95% by volume of O2 and 5% by volume of CO2 was introduced and one end of the artery was connected with an isometric transducer. When a load of 1.5 g was applied to the artery, the contraction and the relaxation of the artery were recorded as a weight on the transducer (a product of Nippon Koden K.K., Japan, "FD Pickup TB-912T"). The relaxation of the mesenteric artery was observed by adding the isoquinolinesulfonamide derivatives and their pharmaceutically acceptable acid addition salts of this invention to the mesenteric artery at the condition of about one half of the maximum contraction with KCl concentration of 15-20 mM. When the complete relaxation of the mesenteric artery was designated 100%, the concentration of the isoquinolinesulfonamide derivatives and their pharmaceutically acceptable acid addition salts which brought about a relaxation of 50% is shown in Table 26.

[1] = test system: femoral and vertebral arteries; assay: Duration time of effect in anesthetized dogs (blood flow volume / blood pressure); format: in vivo, dog of mixed breed; conditions: intravenous
Description: as §1, §2

[2] = Hypotensive action (change of blood pressure) in anesthetized dogs; format: in vivo, dog of mixed breed; conditions: intravenous, 1 (mm/Kg [sic])
Description: as §2

Acute toxicity in mice = conditions: mouse, in vivo; intravenous administration, male ddY-strain mice; hydrochloric acid salt
Description: The acute toxicity of the N-(2-guanidinoethyl)-5-isoquinolinesulfonamide dihydrochloride was measured by giving male ddY-strain mouse and rat an intravenous administration and an oral administration.
The acute toxicity of the hydrochloric acid salt of other compounds was measured by giving male ddY-strain mice an intravenous administration.

SMILES | EC50 (mesenteric artery) | further results
N=C(N)NCCNS(=O)(=O)c1cccc2cnccc12 [Compound 2, N-(2-Guanidinoethyl)-5-isoquinolinesulfonamide] | 1 µM | Increased Blood Flow Volume in Vertebral Artery (vertebral artery): 95%; Increased Blood Flow Volume in Femoral Artery (femoral artery): 37%; Duration Time ([1]; 1 mg/Kg (table prints mm/Kg), 1 mg/kg): > 30 min; Duration Time ([1]; 1 mg/Kg (table prints mm/Kg), listed as Compound (2), 1 mg/kg): more than 30 Min.; Average Decreased Blood Pressure [2]: 32 mmHg
N=C(N)NCCCNS(=O)(=O)c1cccc2cnccc12 [Compound 3, N-(3-Guanidinopropyl)-5-isoquinolinesulfonamide] | 2 µM | 
N=C(N)NCCCCNS(=O)(=O)c1cccc2cnccc12 [Compound 4, N-(4-Guanidinobutyl)-5-isoquinolinesulfonamide] | 2 µM | 
N=C(N)NCCCCCNS(=O)(=O)c1cccc2cnccc12 [Compound 5, N-(5-Guanidinopentyl)-5-isoquinolinesulfonamide] | 3 µM | 
N=C(N)NCCCCCCNS(=O)(=O)c1cccc2cnccc12 [Compound 6, N-(6-Guanidinohexyl)-5-isoquinolinesulfonamide] | 4 µM | 
N=C(N)NCCCCCCCCNS(=O)(=O)c1cccc2cnccc12 [Compound 7, N-(8-Guanidinooctyl)-5-isoquinolinesulfonamide] | 10 µM | 
N=C(N)NCCCCCCCCCCNS(=O)(=O)c1cccc2cnccc12 [Compound 8, N-(10-Guanidinodecyl)-5-isoquinolinesulfonamide] | 15 µM | 
CC(CNC(=N)N)NS(=O)(=O)c1cccc2cnccc12 (centres unmarked) [Compound 9, N-[(2-Guanidino-1-methyl)ethyl]-5-isoquinolinesulfonamide] | 3 µM | 
CCC(CNC(=N)N)NS(=O)(=O)c1cccc2cnccc12 (centres unmarked) [Compound 10, N-[(1-Guanidinomethyl)propyl]-5-isoquinolinesulfonamide] | 5 µM | 
CCCCC(CNC(=N)N)NS(=O)(=O)c1cccc2cnccc12 (centres unmarked) [Compound 13, N-[(1-Guanidinomethyl)pentyl]-5-isoquinolinesulfonamide] | 13 µM | 
CC(CNS(=O)(=O)c1cccc2cnccc12)NC(=N)N (centres unmarked) [Compound 16, N-(2-Guanidinopropyl)-5-isoquinolinesulfonamide] | 3 µM | 
CCC(CNS(=O)(=O)c1cccc2cnccc12)NC(=N)N (centres unmarked) [Compound 17, N-(2-Guanidinobutyl)-5-isoquinolinesulfonamide] | 10 µM | 
CC(C)C(CNS(=O)(=O)c1cccc2cnccc12)NC(=N)N (centres unmarked) [Compound 19, N-(2-Guanidino-3-methylbutyl)-5-isoquinolinesulfonamide] | 15 µM | 
N=C(N)NCC(NS(=O)(=O)c1cccc2cnccc12)c1ccccc1 (centres unmarked) [Compound 23, N-(2-Guanidino-1-phenylethyl)-5-isoquinolinesulfonamide] | 8 µM | 
N=C(N)NCC(Cc1ccccc1)NS(=O)(=O)c1cccc2cnccc12 (centres unmarked) [Compound 24, N-(2-Guanidino-1-benzylethyl)-5-isoquinolinesulfonamide] | 10 µM | 
N=C(N)NC(CNS(=O)(=O)c1cccc2cnccc12)c1ccccc1 (centres unmarked) [Compound 25, N-(2-Guanidino-2-phenylethyl)-5-isoquinolinesulfonamide] | 10 µM | 
CC(CNC(=N)N)CNS(=O)(=O)c1cccc2cnccc12 (centres unmarked) [Compound 28, N-(3-Guanidino-2-methylpropyl)-5-isoquinolinesulfonamide] | 3 µM | 

SMILES | EC50 (mesenteric artery) | further results
N=C(N)NCC(CNS(=O)(=O)c1cccc2cnccc12)c1ccccc1 (centres unmarked) [Compound 31, N-(3-Guanidino-2-phenylpropyl)-5-isoquinolinesulfonamide] | 2 µM | Increased Blood Flow Volume in Vertebral Artery (vertebral artery): 75%; Increased Blood Flow Volume in Femoral Artery (femoral artery): 30%; LD50 (Acute toxicity in mice): 80 mg/kg; Duration Time ([1]; 1 mg/Kg (mm/Kg [sic])): 28 min; Average Decreased Blood Pressure [2]: 15 mmHg
N=C(N)NCC(CNS(=O)(=O)c1cccc2cnccc12)Cc1ccccc1 (centres unmarked) [Compound 34, N-(3-Guanidino-2-benzylpropyl)-5-Isoquinolinesulfonamide] | 2 µM | 
N=C(N)NC(CCNS(=O)(=O)c1cccc2cnccc12)Cc1ccccc1 (centres unmarked) [Compound 35, N-(3-Guanidino-4-phenylbutyl)-5-isoquinolinesulfonamide] | 5 µM | 
CC(CCNS(=O)(=O)c1cccc2cnccc12)CNC(=N)N (centres unmarked) [Compound 36, N-(4-Guanidino-3-methylbutyl)-5-isoquinolinesulfonamide] | 5 µM | 
N=C(N)NCC(CCNS(=O)(=O)c1cccc2cnccc12)c1ccccc1 (centres unmarked) [Compound 37, N-(4-Guanidino-3-phenylbutyl)-5-isoquinolinesulfonamide] | 10 µM | 
N=C(N)NCC(CCCNS(=O)(=O)c1cccc2cnccc12)Cc1ccccc1 (centres unmarked) [Compound 38, N-(5-Guanidino-4-benzylpentyl)-5-isoquinolinesulfonamide] | 11 µM | 
N=C(N)NCCCC(CNS(=O)(=O)c1cccc2cnccc12)Cc1ccccc1 (centres unmarked) [Compound 39, N-(5-Guanidino-2-benzylpentyl)-5-isoquinolinesulfonamide] | 13 µM | 
CC(NC(=N)N)C(C)NS(=O)(=O)c1cccc2cnccc12 (centres unmarked) [Compound 41, N-(2-Guanidino-1-methylpropyl)-5-isoquinolinesulfonamide] | 8 µM | 
CC(CCCCC(C)NS(=O)(=O)c1cccc2cnccc12)NC(=N)N (centres unmarked) [Compound 43, N-(6-Guanidino-1-methylheptyl)-5-isoquinolinesulfonamide] | 5 µM | Increased Blood Flow Volume in Vertebral Artery (vertebral artery): 68%; Increased Blood Flow Volume in Femoral Artery (femoral artery): 32%; LD50 (Acute toxicity in mice): 66 mg/kg; Duration Time ([1]; 1 mg/Kg (mm/Kg [sic])): 25 min; Average Decreased Blood Pressure [2]: 15 mmHg
N=C(N)N1CCCN(S(=O)(=O)c2cccc3cnccc23)CC1 [Compound 45, 4-Amidino-1-(5-isoquinolinesulfonyl)homopiperazine] | 2 µM | 
CC1CN(S(=O)(=O)c2cccc3cnccc23)C(C)CN1C(=N)N (centres unmarked) [Compound 49, 4-Amidino-2,5-dimethyl-1-(5-isoquinolinesulfonyl)piperazine] | 1 µM | 
O=S(=O)(NCCNC1=NCCN1)c1cccc2cnccc12 [Compound 50, 2-[2-(5-Isoquinolinesulfonamido)ethylaminol]-2-imidazoline] | 20 µM | Increased Blood Flow Volume in Vertebral Artery (vertebral artery): 65%; Increased Blood Flow Volume in Femoral Artery (femoral artery): 19%; Duration Time ([1]; 1 mg/Kg (mm/Kg [sic])): 21 min; Average Decreased Blood Pressure [2]: 10 mmHg
O=S(=O)(NCCNC1=NCCCN1)c1cccc2cnccc12 [Compound 51, 2-[2-(5-Isoquinolinesulfonamido)ethylamino]-1,4,5,6-tetrahydropyrimidine] | 25 µM | 
CNC(=N)NCCNS(=O)(=O)c1cccc2cnccc12 [Compound 52, N-[2-(3-Methylguanidino)ethyl]-5-isoquinolinesulfonamide] | 7 µM | 
CN=C(NC)NCCNS(=O)(=O)c1cccc2cnccc12 [Compound 53, N-[2-(2,3-Dimethylguanidino)ethyl]-5-isoquinolinesulfonamide] | 10 µM | 
CCN=C(NCC)NCCNS(=O)(=O)c1cccc2cnccc12 [Compound 54, N-[2-(2,3-Diethylguanidino)ethyl]-5-isoquinolinesulfonamide] | 12 µM | 
CCN=C(N)NCCNS(=O)(=O)c1cccc2cnccc12 [Compound 55, N-[2,(3-Ethylguanidino)ethyl]-5-isoquinolinesulfonamide] | 5 µM | 
